Measurements as given in US9725459B2, “3-oxo-tetrahydro-furo[3,2-B]pyrrol-4(5H)-yl) derivatives I” (GRÜNENTHAL GMBH, priority 2014, dated 2017).

Assays:
Type in all cases: biochemical
human cathepsin S (CatS) = human cathepsin S (CatS) (Homo sapiens (Human), UniProt P25774); experiment: CatS functional enzyme assay; details: for Selectivity Ki(hCatS)/Ki(hCatK): ratio Ki(hCatS)/Ki(hCatK); for Ki: recombinant human CatS, substrate Z-VVR-AMC 5 μM, pH 6.5, Ki by Cheng Prusoff equation, read-out: hCatS, Ki
human cathepsin S (CatS), sequence (P25774 115-331): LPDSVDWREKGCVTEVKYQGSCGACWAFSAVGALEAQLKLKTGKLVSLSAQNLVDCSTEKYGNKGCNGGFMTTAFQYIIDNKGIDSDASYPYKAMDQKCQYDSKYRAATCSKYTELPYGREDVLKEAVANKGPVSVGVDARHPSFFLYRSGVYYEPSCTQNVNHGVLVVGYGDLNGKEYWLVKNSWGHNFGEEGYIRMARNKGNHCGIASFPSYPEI
Method in brief: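 Recombinant human enzymes were incubated 10 min at RT with AMC substrate: CatS 0.0007 mU/well with Z-VVR-AMC 5 µM; CatK 0.00175 mU/well with Z-FR-AMC 40 µM; CatL 0.000874 mU/well with Z-VVR-AMC 40 µM. Fluorescence gave IC50, converted to Ki by Cheng-Prusoff.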

human cathepsin K (CatK) = human cathepsin K (CatK) (Homo sapiens (Human), UniProt P43235); experiment: CatK functional enzyme assay; details: recombinant human CatK, substrate Z-FR-AMC 40 μM, pH 5.5; Ki by Cheng Prusoff equation; read-out: hCatK, Ki
human cathepsin K (CatK), sequence (P43235 115-329): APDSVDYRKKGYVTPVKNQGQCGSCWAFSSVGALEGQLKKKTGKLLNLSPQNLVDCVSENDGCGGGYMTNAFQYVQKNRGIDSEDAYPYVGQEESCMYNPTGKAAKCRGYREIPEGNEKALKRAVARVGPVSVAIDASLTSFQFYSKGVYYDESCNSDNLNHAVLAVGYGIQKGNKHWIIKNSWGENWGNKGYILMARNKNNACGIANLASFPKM
Method in brief: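 Recombinant human enzymes in 50 mM NaOAc, 10 mM EDTA, 1 mM DTT, 0.01% Triton X-100, pH 5.5, 10 min at RT. CatK: 0.00175 mU/well with 40 μM Z-FR-AMC; CatL: 0.000874 mU/well with 40 μM Z-VVR-AMC. AMC fluorescence read; IC50 converted to Ki via Cheng–Prusoff.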

human cathepsin L (CatL) = human cathepsin L (CatL) (Homo sapiens (Human), UniProt P07711); experiment: CatL functional enzyme assay; details: read-out: hCatL, inhibition [%] at 31.6 μM
human cathepsin L (CatL), sequence (P07711 114-333): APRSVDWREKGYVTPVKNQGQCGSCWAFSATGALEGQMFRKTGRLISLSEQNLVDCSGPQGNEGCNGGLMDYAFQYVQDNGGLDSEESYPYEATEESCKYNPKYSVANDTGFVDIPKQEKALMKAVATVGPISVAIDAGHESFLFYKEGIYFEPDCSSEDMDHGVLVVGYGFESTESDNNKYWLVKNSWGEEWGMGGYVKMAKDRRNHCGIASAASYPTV

Selectivity Ki(hCatS)/Ki(hCatK) (human cathepsin S (CatS))	Ki (human cathepsin S (CatS)) [nM]	Ki (human cathepsin K (CatK)) [nM]	inhibition at 31.6 µM (human cathepsin L (CatL)) [%]	Structure (SMILES)
1.2	646	551	5	O=C(N[C@H](C(=O)N1C[C@H](Cl)[C@H]2OCC(=O)[C@H]21)C1CCCCC1)c1sc(-c2cccnc2)cc1F [Example 65, N-((S)-2-((3aS,6S,6aS)-6-chloro-3-oxotetrahydro-2H-furo[3,2-b]pyrrol-4(5H)-yl)-1-cyclohexyl-2-oxoethyl)-3-fluoro-5-(pyridin-3-yl)thiophene-2-carboxamide]
5.0	34	7	3	O=C(N[C@H](C(=O)N1C[C@H](Cl)[C@H]2OCC(=O)[C@H]21)C1CCCCC1)c1ccc(-c2ccnc(C3CC3)c2)s1 [Example 66, N-((S)-2-((3aS,6S,6aS)-6-chloro-3-oxotetrahydro-2H-furo[3,2-b]pyrrol-4(5H)-yl)-1-cyclohexyl-2-oxoethyl)-5-(2-cyclopropylpyridin-4-yl)thiophene-2-carboxamide]
4.7	198	42	8	O=C(N[C@H](C(=O)N1C[C@H](Cl)[C@H]2OCC(=O)[C@H]21)C1CCCCC1)c1ncc(-c2cnc(C(F)(F)F)nc2)s1 [Example 67, N-((S)-2-((3aS,6S,6aS)-6-chloro-3-oxotetrahydro-2H-furo[3,2-b]pyrrol-4(5H)-yl)-1-cyclohexyl-2-oxoethyl)-5-(2-(trifluoromethyl)pyrimidin-5-yl)thiazole-2-carboxamide]
5.9	383	65	5	O=C(N[C@H](C(=O)N1C[C@H](Cl)[C@H]2OCC(=O)[C@H]21)C1CCCCC1)c1ncc(-c2ccc(C(F)(F)F)nc2)s1 [Example 68, N-((S)-2-((3aS,6S,6aS)-6-chloro-3-oxotetrahydro-2H-furo[3,2-b]pyrrol-4(5H)-yl)-1-cyclohexyl-2-oxoethyl)-5-(6-(trifluoromethyl)pyridin-3-yl)thiazole-2-carboxamide]
1.1	9	8	24	Cc1cc(-c2ccc(C(=O)N[C@H](C(=O)N3C[C@H](Cl)[C@H]4OCC(=O)[C@H]43)C3CCCCC3)s2)cnn1 [Example 69, N-((S)-2-((3aS,6S,6aS)-6-chloro-3-oxotetrahydro-2H-furo[3,2-b]pyrrol-4(5H)-yl)-1-cyclohexyl-2-oxoethyl)-5-(6-methylpyridazin-4-yl)thiophene-2-carboxamide]
1.5	27	19	41	O=C(N[C@H](C(=O)N1C[C@H](Cl)[C@H]2OCC(=O)[C@H]21)C1CCCCC1)c1ccc(-c2ccc[n+]([O-])c2)s1 [Example 70, 3-(5-(((S)-2-((3aS,6S,6aS)-6-chloro-3-oxotetrahydro-2H-furo[3,2-b]pyrrol-4(5H)-yl)-1-cyclohexyl-2-oxoethyl)carbamoyl)thiophen-2-yl)pyridine 1-oxide]
3.0	23	8	32	COc1cc(-c2ccc(C(=O)N[C@H](C(=O)N3C[C@H](Cl)[C@H]4OCC(=O)[C@H]43)C3CCCCC3)s2)cnn1 [Example 71, N-((S)-2-((3aS,6S,6aS)-6-chloro-3-oxotetrahydro-2H-furo[3,2-b]pyrrol-4(5H)-yl)-1-cyclohexyl-2-oxoethyl)-5-(6-methoxypyridazin-4-yl)thiophene-2-carboxamide]
1.4	55	39	30	COc1cnnc(-c2ccc(C(=O)N[C@H](C(=O)N3C[C@H](Cl)[C@H]4OCC(=O)[C@H]43)C3CCCCC3)s2)c1 [Example 72, N-((S)-2-((3aS,6S,6aS)-6-chloro-3-oxotetrahydro-2H-furo[3,2-b]pyrrol-4(5H)-yl)-1-cyclohexyl-2-oxoethyl)-5-(5-methoxypyridazin-3-yl)thiophene-2-carboxamide]
0.9	13	15	26	CCc1cnnc(-c2ccc(C(=O)N[C@H](C(=O)N3C[C@H](Cl)[C@H]4OCC(=O)[C@H]43)C3CCCCC3)s2)c1 [Example 73, N-((S)-2-((3aS,6S,6aS)-6-chloro-3-oxotetrahydro-2H-furo[3,2-b]pyrrol-4(5H)-yl)-1-cyclohexyl-2-oxoethyl)-5-(5-ethylpyridazin-3-yl)thiophene-2-carboxamide]
0.3	7	22	19	O=C(N[C@H](C(=O)N1C[C@H](Cl)[C@H]2OCC(=O)[C@H]21)C1CCCCC1)c1ccc(-c2cc(C3CC3)cnn2)s1 [Example 74, N-((S)-2-((3aS,6S,6aS)-6-chloro-3-oxotetrahydro-2H-furo[3,2-b]pyrrol-4(5H)-yl)-1-cyclohexyl-2-oxoethyl)-5-(5-cyclopropylpyridazin-3-yl)thiophene-2-carboxamide]
1.2	21	18	28	Cc1cc(-c2cnc(C(=O)N[C@H](C(=O)N3C[C@H](Cl)[C@H]4OCC(=O)[C@H]43)C3CCCCC3)s2)cnn1 [Example 75, N-((S)-2-((3aS,6S,6aS)-6-chloro-3-oxotetrahydro-2H-furo[3,2-b]pyrrol-4(5H)-yl)-1-cyclohexyl-2-oxoethyl)-5-(6-methylpyridazin-4-yl)thiazole-2-carboxamide]
1.0	29	30	19	C[S+]([O-])c1cnnc(-c2ccc(C(=O)N[C@H](C(=O)N3C[C@H](Cl)[C@H]4OCC(=O)[C@H]43)C3CCCCC3)s2)c1 (stereo partly drawn) [Example 76, N-((S)-2-((3aS,6S,6aS)-6-chloro-3-oxotetrahydro-2H-furo[3,2-b]pyrrol-4(5H)-yl)-1-cyclohexyl-2-oxoethyl)-5-(5-(methylsulfinyl)pyridazin-3-yl)thiophene-2-carboxamide]
1.3	25	20	12	Cc1cc(-c2cnc(C(=O)N[C@H](C(=O)N3C[C@H](Cl)[C@H]4OCC(=O)[C@H]43)C3CCCCC3)s2)cn[n+]1[O-] [Example 77, 4-(2-(((S)-2-((3aS,6S,6aS)-6-chloro-3-oxotetrahydro-2H-furo[3,2-b]pyrrol-4(5H)-yl)-1-cyclohexyl-2-oxoethyl)carbamoyl)thiazol-5-yl)-6-methylpyridazine 1-oxide]
0.8	16	20	21	CS(=O)(=O)c1cnnc(-c2ccc(C(=O)N[C@H](C(=O)N3C[C@H](Cl)[C@H]4OCC(=O)[C@H]43)C3CCCCC3)s2)c1 [Example 78, N-((S)-2-((3aS,6S,6aS)-6-chloro-3-oxotetrahydro-2H-furo[3,2-b]pyrrol-4(5H)-yl)-1-cyclohexyl-2-oxoethyl)-5-(5-(methylsulfonyl)pyridazin-3-yl)thiophene-2-carboxamide]
2.7	56	21	25	O=C(N[C@H](C(=O)N1C[C@H](Cl)[C@H]2OCC(=O)[C@H]21)C1CCCCC1)c1ccc(-c2ccc[n+]([O-])n2)s1 [Example 79, 3-(5-(((S)-2-((3aS,6S,6aS)-6-chloro-3-oxotetrahydro-2H-furo[3,2-b]pyrrol-4(5H)-yl)-1-cyclohexyl-2-oxoethyl)carbamoyl)thiophen-2-yl)pyridazine 1-oxide]
2.6	42	16	30	O=C(N[C@H](C(=O)N1C[C@H](Cl)[C@H]2OCC(=O)[C@H]21)C1CCCCC1)c1ccc(-c2cnnc(O)c2)s1 [Example 80, N-((S)-2-((3aS,6S,6aS)-6-chloro-3-oxotetrahydro-2H-furo[3,2-b]pyrrol-4(5H)-yl)-1-cyclohexyl-2-oxoethyl)-5-(6-hydroxypyridazin-4-yl)thiophene-2-carboxamide]
12.1	133	11	18	Cc1ncc(-c2ccc(C(=O)N[C@H](C(=O)N3C[C@H](Cl)[C@H]4OCC(=O)[C@H]43)C3CCCCC3)s2)c(C)n1 [Example 81, N-((S)-2-((3aS,6S,6aS)-6-chloro-3-oxotetrahydro-2H-furo[3,2-b]pyrrol-4(5H)-yl)-1-cyclohexyl-2-oxoethyl)-5-(2,4-dimethylpyrimidin-5-yl)thiophene-2-carboxamide]
14.3	129	9	24	O=C(N[C@H](C(=O)N1C[C@H](Cl)[C@H]2OCC(=O)[C@H]21)C1CCCCC1)c1ncc(-c2ccnc(C3CC3)c2)s1 [Example 82, N-((S)-2-((3aS,6S,6aS)-6-chloro-3-oxotetrahydro-2H-furo[3,2-b]pyrrol-4(5H)-yl)-1-cyclohexyl-2-oxoethyl)-5-(2-cyclopropylpyridin-4-yl)thiazole-2-carboxamide]
